“And” between values parts separate entries of the source, which are not always exact repeats. Equal entries are not always repeated.
Assays:
Experiment in all cases: KINOMEscan competition binding
Conditions in all cases: compound 10.0 µM
NEK1 (human) = NEK1 (human) (UniProt Q96PY6)
FLT3 (human) = FLT3 (human) (UniProt P36888)
MUSK (human) = MUSK (human) (UniProt O15146)
SRC (human) = SRC (human) (UniProt P12931)
EPHA1 (human) = EPHA1 (human) (UniProt P21709)
PRKD3 (human) = PRKD3 (human) (UniProt O94806)
RIPK1 (human) = RIPK1 (human) (UniProt Q13546)
DCLK3 (human) = DCLK3 (human) (UniProt Q9C098)
MAPK10 (human) = MAPK10 (human) (UniProt P53779)
BMPR1B (human) = BMPR1B (human) (UniProt O00238)
CDK19 (human) = CDK19 (human) (UniProt Q9BWU1)
FLT4 (human) = FLT4 (human) (UniProt P35916)
MAP2K3 (human) = MAP2K3 (human) (UniProt P46734)
PHKG2 (human) = PHKG2 (human) (UniProt P15735)
AKT3 (human) = AKT3 (human) (UniProt Q9Y243)
STK32C (human) = STK32C (human) (UniProt Q86UX6)
EPHA2 (human) = EPHA2 (human) (UniProt P29317)
ITK (human) = ITK (human) (UniProt Q08881)
DAPK1 (human) = DAPK1 (human) (UniProt P53355)
BMPR2 (human) = BMPR2 (human) (UniProt Q13873)
CHEK1 (human) = CHEK1 (human) (UniProt O14757)
YES1 (human) = YES1 (human) (UniProt P07947)
CAMK2G (human) = CAMK2G (human) (UniProt Q13555)
STK3 (human) = STK3 (human) (UniProt Q13188)
MAPK13 (human) = MAPK13 (human) (UniProt O15264)
TEC (human) = TEC (human) (UniProt P42680)
EPHA5 (human) = EPHA5 (human) (UniProt P54756)
AAK1 (human) = AAK1 (human) (UniProt Q2M2I8)
ACVR1B (human) = ACVR1B (human) (UniProt P36896)
MERTK (human) = MERTK (human) (UniProt Q12866)
[1] = test system: ABL1 (human), P00519 [M351T]
MINK1 (human) = MINK1 (human) (UniProt Q8N4C8)
HCK (human) = HCK (human) (UniProt P08631)
MAP2K1 (human) = MAP2K1 (human) (UniProt Q02750)
ADCK4 (human) = ADCK4 (human) (UniProt Q96D53)
PRKAA2 (human) = PRKAA2 (human) (UniProt P54646)
CDK11B (human) = CDK11B (human) (UniProt P21127)
CSNK1D (human) = CSNK1D (human) (UniProt P48730)
EIF2AK2 (human) = EIF2AK2 (human) (UniProt P19525)
SIK1 (human) = SIK1 (human) (UniProt P57059)

Sequence of FLT3 (human) (P36888 whole entry, looked up): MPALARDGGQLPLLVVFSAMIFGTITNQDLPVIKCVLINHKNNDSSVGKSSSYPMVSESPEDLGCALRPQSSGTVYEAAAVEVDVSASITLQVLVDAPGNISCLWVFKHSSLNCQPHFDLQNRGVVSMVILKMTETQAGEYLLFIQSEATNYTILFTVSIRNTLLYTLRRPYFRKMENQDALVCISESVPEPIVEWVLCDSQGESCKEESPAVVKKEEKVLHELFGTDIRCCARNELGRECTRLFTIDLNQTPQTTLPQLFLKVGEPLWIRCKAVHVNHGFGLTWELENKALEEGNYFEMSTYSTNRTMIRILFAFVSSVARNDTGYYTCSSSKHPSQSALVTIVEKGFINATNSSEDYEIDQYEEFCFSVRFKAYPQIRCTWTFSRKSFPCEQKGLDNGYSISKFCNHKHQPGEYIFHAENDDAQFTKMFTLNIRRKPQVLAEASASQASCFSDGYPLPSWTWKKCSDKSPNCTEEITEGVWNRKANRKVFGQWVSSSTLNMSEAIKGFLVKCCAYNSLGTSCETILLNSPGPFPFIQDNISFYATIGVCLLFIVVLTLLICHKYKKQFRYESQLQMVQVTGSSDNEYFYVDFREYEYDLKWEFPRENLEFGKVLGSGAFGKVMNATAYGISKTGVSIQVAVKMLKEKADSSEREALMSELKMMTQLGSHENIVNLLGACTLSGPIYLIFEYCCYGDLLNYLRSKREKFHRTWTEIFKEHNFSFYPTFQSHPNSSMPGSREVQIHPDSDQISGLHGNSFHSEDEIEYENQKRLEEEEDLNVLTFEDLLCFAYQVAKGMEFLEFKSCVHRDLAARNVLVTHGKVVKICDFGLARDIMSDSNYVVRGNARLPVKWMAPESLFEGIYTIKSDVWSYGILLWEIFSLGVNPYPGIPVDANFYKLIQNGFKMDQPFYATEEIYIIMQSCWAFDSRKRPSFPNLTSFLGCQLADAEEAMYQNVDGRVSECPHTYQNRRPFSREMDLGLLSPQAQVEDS
Sequence of DCLK3 (human) (Q9C098 whole entry, looked up): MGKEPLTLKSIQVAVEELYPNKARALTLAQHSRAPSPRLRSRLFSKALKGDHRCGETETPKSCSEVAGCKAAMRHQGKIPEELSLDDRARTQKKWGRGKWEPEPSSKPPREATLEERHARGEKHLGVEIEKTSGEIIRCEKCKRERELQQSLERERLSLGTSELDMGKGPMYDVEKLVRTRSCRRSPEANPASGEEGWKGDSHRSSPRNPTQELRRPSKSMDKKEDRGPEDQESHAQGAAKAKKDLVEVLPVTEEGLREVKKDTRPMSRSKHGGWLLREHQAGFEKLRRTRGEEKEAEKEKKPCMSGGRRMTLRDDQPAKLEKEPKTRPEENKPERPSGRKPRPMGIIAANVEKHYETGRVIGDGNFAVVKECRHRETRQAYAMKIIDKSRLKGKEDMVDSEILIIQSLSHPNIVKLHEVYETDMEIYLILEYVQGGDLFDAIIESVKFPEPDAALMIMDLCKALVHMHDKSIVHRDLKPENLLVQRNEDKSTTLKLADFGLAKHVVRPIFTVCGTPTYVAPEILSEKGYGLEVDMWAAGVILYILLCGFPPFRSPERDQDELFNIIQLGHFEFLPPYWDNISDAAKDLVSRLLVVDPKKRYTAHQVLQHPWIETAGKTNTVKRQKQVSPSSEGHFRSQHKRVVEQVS
Sequence of HCK (human) (P08631 whole entry, looked up): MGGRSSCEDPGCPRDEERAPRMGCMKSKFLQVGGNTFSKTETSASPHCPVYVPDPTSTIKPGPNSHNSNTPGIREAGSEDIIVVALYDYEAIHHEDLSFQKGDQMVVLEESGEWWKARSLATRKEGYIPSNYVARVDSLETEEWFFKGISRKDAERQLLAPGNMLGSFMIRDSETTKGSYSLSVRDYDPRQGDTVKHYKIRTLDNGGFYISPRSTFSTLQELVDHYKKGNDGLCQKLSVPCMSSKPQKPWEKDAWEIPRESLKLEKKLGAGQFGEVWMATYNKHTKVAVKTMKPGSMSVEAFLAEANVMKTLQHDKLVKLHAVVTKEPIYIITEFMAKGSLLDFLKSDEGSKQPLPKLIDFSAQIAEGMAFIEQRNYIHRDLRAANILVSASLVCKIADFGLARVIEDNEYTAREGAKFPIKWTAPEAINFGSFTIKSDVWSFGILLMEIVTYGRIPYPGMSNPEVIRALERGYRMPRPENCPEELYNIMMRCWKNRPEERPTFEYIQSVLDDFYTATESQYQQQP
Sequence of ADCK4 (human) (Q96D53 whole entry, looked up): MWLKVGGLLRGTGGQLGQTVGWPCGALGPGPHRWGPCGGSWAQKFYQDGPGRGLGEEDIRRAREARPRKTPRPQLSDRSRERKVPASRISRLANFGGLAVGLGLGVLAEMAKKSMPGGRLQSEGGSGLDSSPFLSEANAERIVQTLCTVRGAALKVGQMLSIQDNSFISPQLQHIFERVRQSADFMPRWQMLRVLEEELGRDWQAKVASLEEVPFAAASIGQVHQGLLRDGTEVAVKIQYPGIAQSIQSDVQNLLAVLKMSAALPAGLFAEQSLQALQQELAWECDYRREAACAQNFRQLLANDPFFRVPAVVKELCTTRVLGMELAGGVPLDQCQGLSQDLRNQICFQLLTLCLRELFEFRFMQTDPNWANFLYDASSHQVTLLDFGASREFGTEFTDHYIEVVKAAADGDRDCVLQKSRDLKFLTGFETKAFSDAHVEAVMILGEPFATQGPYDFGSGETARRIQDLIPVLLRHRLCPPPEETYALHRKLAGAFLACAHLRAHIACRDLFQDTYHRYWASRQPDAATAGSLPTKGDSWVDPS
Sequence of EPHA5 (human) (P54756 whole entry, looked up): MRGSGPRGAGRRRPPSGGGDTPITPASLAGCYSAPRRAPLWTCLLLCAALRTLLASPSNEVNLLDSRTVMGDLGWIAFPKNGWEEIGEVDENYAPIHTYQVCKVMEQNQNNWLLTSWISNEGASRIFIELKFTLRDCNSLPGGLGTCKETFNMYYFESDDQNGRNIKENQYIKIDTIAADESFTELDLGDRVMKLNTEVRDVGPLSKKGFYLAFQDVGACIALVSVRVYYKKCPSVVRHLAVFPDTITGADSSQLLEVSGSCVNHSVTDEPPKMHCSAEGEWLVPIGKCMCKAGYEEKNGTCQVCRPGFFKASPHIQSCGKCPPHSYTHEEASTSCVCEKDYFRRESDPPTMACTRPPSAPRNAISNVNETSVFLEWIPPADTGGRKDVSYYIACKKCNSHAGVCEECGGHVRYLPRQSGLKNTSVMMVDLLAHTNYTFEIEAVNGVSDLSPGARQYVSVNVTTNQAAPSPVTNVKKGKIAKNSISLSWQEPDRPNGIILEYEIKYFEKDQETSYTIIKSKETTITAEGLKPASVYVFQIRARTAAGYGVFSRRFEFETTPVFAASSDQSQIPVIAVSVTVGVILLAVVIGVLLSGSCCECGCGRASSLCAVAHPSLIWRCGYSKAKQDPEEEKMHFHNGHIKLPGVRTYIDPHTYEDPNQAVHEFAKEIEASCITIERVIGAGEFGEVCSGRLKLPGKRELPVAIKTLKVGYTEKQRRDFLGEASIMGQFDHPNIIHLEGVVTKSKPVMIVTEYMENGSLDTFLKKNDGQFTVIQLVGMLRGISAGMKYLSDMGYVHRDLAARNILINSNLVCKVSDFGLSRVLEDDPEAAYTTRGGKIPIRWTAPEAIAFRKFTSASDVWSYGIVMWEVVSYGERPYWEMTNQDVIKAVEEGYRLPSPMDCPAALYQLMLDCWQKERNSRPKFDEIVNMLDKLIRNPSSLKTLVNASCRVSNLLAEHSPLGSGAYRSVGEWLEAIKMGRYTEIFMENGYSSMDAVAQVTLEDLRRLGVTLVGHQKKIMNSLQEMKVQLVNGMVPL
Sequence of MAP2K3 (human) (P46734 whole entry, looked up): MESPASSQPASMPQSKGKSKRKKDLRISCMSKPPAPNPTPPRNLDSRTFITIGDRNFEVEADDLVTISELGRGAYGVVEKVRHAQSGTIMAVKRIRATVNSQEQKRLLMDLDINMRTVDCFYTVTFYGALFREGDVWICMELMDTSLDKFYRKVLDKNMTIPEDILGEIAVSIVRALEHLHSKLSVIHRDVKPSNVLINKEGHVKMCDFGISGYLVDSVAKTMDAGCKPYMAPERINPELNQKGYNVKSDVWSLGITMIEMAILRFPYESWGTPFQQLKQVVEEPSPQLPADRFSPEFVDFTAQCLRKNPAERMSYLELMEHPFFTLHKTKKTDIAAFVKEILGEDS
Sequence of MAPK10 (human) (P53779 whole entry, looked up): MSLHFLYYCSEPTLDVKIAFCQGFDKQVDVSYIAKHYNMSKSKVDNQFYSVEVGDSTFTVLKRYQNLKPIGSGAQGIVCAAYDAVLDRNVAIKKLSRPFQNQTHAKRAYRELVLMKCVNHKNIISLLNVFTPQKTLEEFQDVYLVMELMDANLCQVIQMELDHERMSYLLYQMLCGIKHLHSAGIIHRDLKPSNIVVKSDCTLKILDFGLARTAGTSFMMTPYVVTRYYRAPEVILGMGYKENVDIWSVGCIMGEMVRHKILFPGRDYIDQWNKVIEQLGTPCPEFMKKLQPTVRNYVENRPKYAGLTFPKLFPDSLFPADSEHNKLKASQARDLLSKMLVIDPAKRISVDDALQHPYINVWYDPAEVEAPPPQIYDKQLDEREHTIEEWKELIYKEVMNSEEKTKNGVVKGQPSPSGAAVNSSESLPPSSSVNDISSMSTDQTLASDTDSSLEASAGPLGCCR
Sequence of PHKG2 (human) (P15735 whole entry, looked up): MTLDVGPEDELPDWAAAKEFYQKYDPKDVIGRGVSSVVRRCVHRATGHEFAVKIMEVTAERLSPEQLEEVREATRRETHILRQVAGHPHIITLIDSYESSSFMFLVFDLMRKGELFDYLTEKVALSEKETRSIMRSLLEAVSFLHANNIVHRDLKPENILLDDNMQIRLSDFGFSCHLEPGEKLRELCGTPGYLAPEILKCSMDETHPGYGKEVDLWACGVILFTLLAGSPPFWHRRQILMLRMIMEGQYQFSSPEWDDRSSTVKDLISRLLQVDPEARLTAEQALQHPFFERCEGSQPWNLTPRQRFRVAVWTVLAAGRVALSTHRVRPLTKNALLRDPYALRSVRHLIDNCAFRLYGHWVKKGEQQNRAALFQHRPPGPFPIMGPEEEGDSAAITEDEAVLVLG

Row | SMILES | kinase still bound, per cent of control (NEK1 (human)) [%] | kinase still bound, per cent of control (FLT3 (human)) | kinase still bound, per cent of control (MUSK (human)) [%] | kinase still bound, per cent of control (SRC (human)) [%] | kinase still bound, per cent of control (EPHA1 (human)) [%] | kinase still bound, per cent of control (PRKD3 (human)) [%] | kinase still bound, per cent of control (RIPK1 (human)) [%] | kinase still bound, per cent of control (DCLK3 (human)) [%] | kinase still bound, per cent of control (MAPK10 (human)) [%] | kinase still bound, per cent of control (BMPR1B (human)) [%] | kinase still bound, per cent of control (CDK19 (human)) [%] | kinase still bound, per cent of control (FLT4 (human)) [%] | kinase still bound, per cent of control (MAP2K3 (human)) [%] | kinase still bound, per cent of control (PHKG2 (human)) [%] | kinase still bound, per cent of control (AKT3 (human)) [%] | kinase still bound, per cent of control (STK32C (human)) [%] | kinase still bound, per cent of control (EPHA2 (human)) [%] | kinase still bound, per cent of control (ITK (human)) [%] | kinase still bound, per cent of control (DAPK1 (human)) [%] | kinase still bound, per cent of control (BMPR2 (human)) [%] | other results
1 | COc1cc(C(=O)NC2CCN(C)CC2)ccc1Nc1ncc2c(n1)N(C1CCCC1)C(C)CC(=O)N2C (stereo not given) | 100 | 100% | 100 | 100 | 100 | 32 | 100 | 100 | 100 | 100 | 100 | 100 | 100 | 100 | 100 | 100 | 100 | 100 | 26 | 100 | kinase still bound, per cent of control (CHEK1 (human)): 100%; kinase still bound, per cent of control (YES1 (human)): 100%; kinase still bound, per cent of control (CAMK2G (human)): 34%; kinase still bound, per cent of control (STK3 (human)): 100%; kinase still bound, per cent of control (MAPK13 (human)): 100%; kinase still bound, per cent of control (TEC (human)): 100%; kinase still bound, per cent of control (EPHA5 (human)): 100%; kinase still bound, per cent of control (AAK1 (human)): 100%; kinase still bound, per cent of control (ACVR1B (human)): 100%; kinase still bound, per cent of control (MERTK (human)): 100%; kinase still bound, per cent of control [1]: 100%; kinase still bound, per cent of control (MINK1 (human)): 100%; kinase still bound, per cent of control (HCK (human)): 100%; kinase still bound, per cent of control (MAP2K1 (human)): 100%; kinase still bound, per cent of control (ADCK4 (human)): 100%; kinase still bound, per cent of control (PRKAA2 (human)): 100%; kinase still bound, per cent of control (CDK11B (human)): 100%; kinase still bound, per cent of control (CSNK1D (human)): 100%; kinase still bound, per cent of control (EIF2AK2 (human)): 100%; kinase still bound, per cent of control (SIK1 (human)): 100%
2 | N#Cc1c(NC(=O)c2cccc3ccccc23)sc2c1CCCC2 | 100 | 94% and 87% | 97 | 81 | 85 | 84 | 87 | 100 | 0.95 | 84 | 88 | 91 | 88 | 83 | 82 | 97 | 100 | 89 | 85 | 100 | kinase still bound, per cent of control (CHEK1 (human)): 82%; kinase still bound, per cent of control (YES1 (human)): 78%; kinase still bound, per cent of control (CAMK2G (human)): 94%; kinase still bound, per cent of control (STK3 (human)): 91%; kinase still bound, per cent of control (MAPK13 (human)): 46%; kinase still bound, per cent of control (TEC (human)): 91%; kinase still bound, per cent of control (EPHA5 (human)): 89%; kinase still bound, per cent of control (AAK1 (human)): 91%; kinase still bound, per cent of control (ACVR1B (human)): 100%; kinase still bound, per cent of control (MERTK (human)): 100%; kinase still bound, per cent of control [1]: 98%; kinase still bound, per cent of control (MINK1 (human)): 95%; kinase still bound, per cent of control (HCK (human)): 92%; kinase still bound, per cent of control (MAP2K1 (human)): 98%; kinase still bound, per cent of control (ADCK4 (human)): 100%; kinase still bound, per cent of control (PRKAA2 (human)): 84%; kinase still bound, per cent of control (CDK11B (human)): 95%; kinase still bound, per cent of control (CSNK1D (human)): 100%; kinase still bound, per cent of control (EIF2AK2 (human)): 100%; kinase still bound, per cent of control (SIK1 (human)): 92%

From the kinase profiling compilation of Christmann-Franck et al. (2016)
